# Earlier results as cited in patent publication US20100152480A1 (priority 2008, published 2010).
# What was measured:
# [1] = tested on: gram positive bacteria (Arthrobacter oxydans, Bacillus cereus var mycoide, Bacillus subtilis, Bacillus megaterium, Clostridium perfringens, Listeria …); conditions: listed gram positive species; known from prior art
# [2] = tested on: gram negative bacteria (Alcaligenes faecalis, Bordetella bronchiseptica, Citrobacter freundii, Citrobacter intermedium, Enterobacter aerogenes, Escherichia …); conditions: listed gram negative species; known from prior art
# [3] = tested on: moulds and yeast (Aspergillus niger, Aureobasidium pullulans, Cladosporium cladosporioides, Gliocadium virens, Chaetonium globosum, Penicillium chrysogenum …); conditions: listed moulds and yeasts; known from prior art
# [4] = 20° C.
substance,measurement,setting,value
ethyl-Na-dodecanoyl-Larginate HCl [Ethyl lauroyl arginate],effectiveness against gram positive bacteria,[1],effective
same,effectiveness against gram negative bacteria,[2],effective
same,effectiveness against moulds and yeast,[3],effective
same,solubility in water,[4],greater than 247 g/kg
